Data taken from US9533946B1, “N-carbamoylputrescine to enhance muscle protein synthesis” (CITRAGE, priority 2016, dated 2017).
Marks after values point to notes of the source that are not given here.

Assays:
[1] = Plasma biological parameters after NCP-supplemented diet in rats; type: in vivo
Description: (§1) Eight-week old Sprague-Dawley rats (Charles Rivers, Lyon, France) were used. They were placed in individual cages and acclimatized for two weeks to our animal facility. During this period they received standard rodent chow (A04, UAR, Villemoisson-sur-Orge, France) and water ad libitum.
(§2) After acclimatization twenty eight-month old rats were randomized into three groups in order to receive for two weeks a standard diet either alone (n=6; control group) or supplemented with NCP either 5 mg/kg/d (n=7, NCP5 group) or 50 mg/kg/d (n=7; NCP50 group). Their weight, behaviour and mortality were monitored throughout the feeding period.
(§3) At the end of the feeding period, the rats, in the fasted state, were anesthetized by isoflurane inhalation and euthanized by decapitation.
(§4) Mixed blood was collected onto heparinized tubes and rapidly centrifuged. The liver was immediately removed and weighed, and a sample was cut off, frozen in liquid nitrogen, and stored at −80° C. until analysis. For the jejunum and ileum, the intestine was washed with cold NaCl (0.9%) and reverted. Thereafter the intestinal mucosa was scraped, rapidly frozen in liquid nitrogen, and stored at −80° C. until analysis. Two muscles of the hindlimb, tibialis (rich in type II fibres) and soleus (rich in type I fibres), and the right kidney were rapidly removed, weighed, frozen in liquid nitrogen, and stored at −80° C. until analysis. Body composition was assessed by dissection and lean mass (carcass), visceral fat mass, sub-cutaneous fat mass (subcutaneous fat and skin) and mass of the viscera were determined.
(§5) Biological parameters studied were: • in tissues: NCP, protein and amino acid contents • in plasma: amino acids, liver function tests (plasma aspartate aminotransferase, alanine aminotransferase, alkaline phosphatase, and bilirubin), muscle enzymes (plasma creatine kinase, and lactate dehydrogenase), plasma electrolytes (sodium, potassium, chloride, bicarbonates), total protein, urea, creatinine, calcium, phosphate, magnesium, uric acid, glucose, cholesterol and triglycerides. […]

[2] = General effects of NCP-supplemented diet in rats (weight, behaviour, mortality, body composition); type: in vivo; settings: for Initial weight: n = 7, before feeding period, mean ± SD; for Daily weight gain / Final weight / Weight gain: n = 7, mean ± SD
Description: as §1, §2, §3, §4

[3] = tested on: liver, kidney, tibialis, and jejunal and ileal mucosa; assay: Protein contents of other tissues after NCP-supplemented diet in rats; type: in vivo, Sprague-Dawley rats; settings: between the three groups
Description: as §1, §2, §3
as §4, with “Two muscles of the hindlimb, tibialis (rich in type II fibres) and soleus (rich in type I fibres), and the right kidney were rapidly removed, weighed, frozen in liquid nitrogen, and stored at −80° C. until analysis.” left out, “determined. […]” for “determined.”

[4] = tested on: soleus (rich in type I fibres); assay: Soleus protein content after NCP-supplemented diet in rats; type: in vivo, Sprague-Dawley rats
Description: as §1, §2, §3, §4, §5

[5] = tested on: soleus (rich in type I fibres); assay: Soleus amino acid content after NCP-supplemented diet in rats; type: in vivo, Sprague-Dawley rats; parameters: Soleus Serine content / Soleus Asparagine content / Soleus Glutamate content / Soleus Glycine content / Soleus Citrulline content / Soleus Valine content / Soleus Isoleucine content / Soleus Leucine content / Soleus Tyrosine content / Soleus Phenylalanine content / Soleus Ornithine content / Soleus Histidine content / Soleus Lysine content / Soleus Arginine content / Soleus Proline content / Soleus Taurine content / Soleus Aspartate content / Soleus Threonine content: unit not given here
Description: as §1
as §2, with “[…]; […]).” for “NCP5 group) or 50 mg/kg/d (n=7; NCP50 group).”
as §3, §4
Biological parameters studied were: • in tissues: NCP, protein and amino acid contents • in plasma: amino acids, liver function tests (plasma aspartate aminotransferase, alanine aminotransferase, alkaline phosphatase, and bilirubin), muscle enzymes (plasma creatine kinase, and lactate dehydrogenase), plasma electrolytes (sodium, potassium, chloride, bicarbonates), total protein, urea, creatinine, calcium, phosphate, magnesium, uric acid, glucose, cholesterol and triglycerides. Results General Effects of N-carbamoyl Putrescine

[6] = rats, NCP 5 mg/kg/d in diet, two weeks
[7] = rats, NCP 50 mg/kg/d in diet, two weeks
[8] = rats, NCP 5 or 50 mg/kg/d in diet, two weeks

NCCCCNC(N)=O [NCP, 1-(4-aminobutyl) urea]
Plasma urea ([1]; NCP50 group vs NCP5, FIG. 1): higher | Plasma urea ([1]; the two NCP-supplemented groups compared to control rats): no difference | plasma electrolytes, hepatic and muscular enzymes, creatinine, glucose, cholesterol, triglycerides and uric acid levels ([1]; three groups (control, NCP5, NCP50), data not shown): No difference | side effects ([2]; mammals, after administration): no side effects were noticed | Initial weight ([2]; rats, NCP 5 mg/kg group): 264.9 ± 16 g | Daily weight gain [2, 6]: 3.44 ± 0.58 g/day | Final weight [2, 6]: 313.1 ± 18.1 g | Weight gain [2, 6]: 48.1 ± 8.1 g | Initial weight ([2]; rats, NCP 50 mg/kg group): 264.9 ± 8.2 g | Daily weight gain [2, 7]: 3.65 ± 0.62 g/day | Final weight [2, 7]: 316.1 ± 13.9 g | Weight gain [2, 7]: 51.2 ± 8.7 g | general behavior [2, 8]: No rats showed abnormal general behavior | weight gain compared to controls [2, 8]: no difference | body composition (lean mass, fat mass, mass of the viscera, liver mass) ([2]; rats, NCP 5 or 50 mg/kg/d vs control, data not shown): no difference between the groups | liver, kidney, tibialis, and jejunal and ileal mucosa protein contents [3]: similar | protein level in soleus ([4]; NCP5 group (5 mg/kg/d, two weeks), control 12.7±1.8, p=0.018 vs control): 14.5±0.7 g/100 g | protein level in soleus vs control group ([4]; NCP5 vs control, p=0.018): higher | protein level in soleus ([4]; NCP50 group (50 mg/kg/d, two weeks), control 12.7±1.8): 14.0±0.8 g/100 g | Soleus Alanine content ([5]; NCP 5 mg/kg, n = 7, mean ± SD): 1735 ± 385^ab μmol/g | Soleus Arginine content ([5]; NCP 5 mg/kg, n = 7, mean ± SD): 381 ± 115 | Soleus Asparagine content ([5]; NCP 5 mg/kg, n = 7, mean ± SD): 519 ± 106 | Soleus Aspartate content ([5]; NCP 5 mg/kg, n = 7, mean ± SD): 4195 ± 703 | Soleus Citrulline content ([5]; NCP 5 mg/kg, n = 7, mean ± SD): 351 ± 53 | Soleus Glutamate content ([5]; NCP 5 mg/kg, n = 7, mean ± SD): 3753 ± 684 | Soleus Glutamine content ([5]; NCP 5 mg/kg, n = 7, mean ± SD): 7605 ± 1016^ab μmol/g | Soleus Glycine content ([5]; NCP 5 mg/kg, n = 7, mean ± SD): 1932 ± 516 | Soleus Histidine content ([5]; NCP 5 mg/kg, n = 7, mean ± SD): 415 ± 50^a μmol/g | Soleus Isoleucine content ([5]; NCP 5 mg/kg, n = 7, mean ± SD): 83 ± 17 | Soleus Leucine content ([5]; NCP 5 mg/kg, n = 7, mean ± SD): 103 ± 23 | Soleus Lysine content ([5]; NCP 5 mg/kg, n = 7, mean ± SD): 933 ± 222 | Soleus Ornithine content ([5]; NCP 5 mg/kg, n = 7, mean ± SD): 75 ± 12 | Soleus Phenylalanine content ([5]; NCP 5 mg/kg, n = 7, mean ± SD): 75 ± 19 | Soleus Proline content ([5]; NCP 5 mg/kg, n = 7, mean ± SD): 196 ± 42 | Soleus Serine content ([5]; NCP 5 mg/kg, n = 7, mean ± SD): 1933 ± 384 | Soleus Taurine content ([5]; NCP 5 mg/kg, n = 7, mean ± SD): 23882 ± 2585 | Soleus Threonine content ([5]; NCP 5 mg/kg, n = 7, mean ± SD): 512 ± 109 | Soleus Tyrosine content ([5]; NCP 5 mg/kg, n = 7, mean ± SD): 106 ± 15 | Soleus Valine content ([5]; NCP 5 mg/kg, n = 7, mean ± SD): 182 ± 22 | Soleus Alanine content ([5]; NCP 50 mg/kg, n = 6, mean ± SD): 2025 ± 182^b μmol/g | Soleus Arginine content ([5]; NCP 50 mg/kg, n = 6, mean ± SD): 395 ± 62 | Soleus Asparagine content ([5]; NCP 50 mg/kg, n = 6, mean ± SD): 538 ± 124 | Soleus Aspartate content ([5]; NCP 50 mg/kg, n = 6, mean ± SD): 4742 ± 1443 | Soleus Citrulline content ([5]; NCP 50 mg/kg, n = 6, mean ± SD): 379 ± 65 | Soleus Glutamate content ([5]; NCP 50 mg/kg, n = 6, mean ± SD): 4074 ± 390 | Soleus Glutamine content ([5]; NCP 50 mg/kg, n = 6, mean ± SD): 8547 ± 988^b μmol/g | Soleus Glycine content ([5]; NCP 50 mg/kg, n = 6, mean ± SD): 2145 ± 153 | Soleus Histidine content ([5]; NCP 50 mg/kg, n = 6, mean ± SD): 494 ± 6 | Soleus Isoleucine content ([5]; NCP 50 mg/kg, n = 6, mean ± SD): 91 ± 22 | Soleus Leucine content ([5]; NCP 50 mg/kg, n = 6, mean ± SD): 113 ± 32 | Soleus Lysine content ([5]; NCP 50 mg/kg, n = 6, mean ± SD): 1009 ± 168 | Soleus Ornithine content ([5]; NCP 50 mg/kg, n = 6, mean ± SD): 74 ± 15 | Soleus Phenylalanine content ([5]; NCP 50 mg/kg, n = 6, mean ± SD): 77 ± 11 | Soleus Proline content ([5]; NCP 50 mg/kg, n = 6, mean ± SD): 199 ± 26 | Soleus Serine content ([5]; NCP 50 mg/kg, n = 6, mean ± SD): 1964 ± 248 | Soleus Taurine content ([5]; NCP 50 mg/kg, n = 6, mean ± SD): 25223 ± 1987 | Soleus Threonine content ([5]; NCP 50 mg/kg, n = 6, mean ± SD): 571 ± 67 | Soleus Tyrosine content ([5]; NCP 50 mg/kg, n = 6, mean ± SD): 126 ± 21 | Soleus Valine content ([5]; NCP 50 mg/kg, n = 6, mean ± SD): 194 ± 24 | concentration of Glutamine, alanine and histidine in soleus muscle ([5]; with NCP administration, positive correlation of glutamine and alanine with dose (p=0.015, p=0.013)): significantly increased
